Measurements: patent US20260224538A1 (Purdue Research Foundation, priority 2023, published 2026)

Experiments:
[1] = biological target: T1, transthyretin fragment peptide (TTR81-127) (Homo sapiens, UniProt P02766); assay: ThT fluorescence assay of TTR81-127 fibril formation; type: biochemical; details: for TTR81-127 fibril formation (ThT): compound 100 μM, molar ratio 1:10; for remaining activity at 100 µM: compounds at 100 μM, TTR81-127 10 μM, control 0.25% DMSO, read-out: ThT TTR81-127 (%), maximum thioflavin T (ThT) intensity in percentage
T1 construct: TTR fragment 81-127 was obtained from AnaSpec; purchased AnaSpec; host or cells: synthetic peptide
Method: (§1) Thioflavin-T (ThT) fluorescence assays. Thioflavin-T (ThT) fluorescence assays were used to monitor fibril formation of recombinant Ap (fragments 1-40 and 1-42), recombinant α-syn, recombinant tau isoform 2N4R, synthetic IAPP, and synthetic TTR peptides treated with BTA and its derivatives. The IAPP ThT assay was performed in 10 mM PBS (pH 7.4) at a final concentration of 10 μM for both IAPP and ThT as published previously. Aβ fragments 1-40 and 1-42 were tested at 7 μM in 10 mM of PBS using ThT at a final concentration of 20 μM. Kinetics of α-syn fibrillization were performed as published previously.^36-37 TTR fragment kinetics of fibril formation were assessed at 10 μM in 100 mM sodium acetate buffer supplemented with 100 mM KCl and 1 mM ethylenediaminetetraacetic acid (EDTA) (pH 4) with 20 μM ThT. The fluorescence emission experiments were performed with the excitation and emission wavelengths set at 440 and 485 nm, respectively, with a Synergy HT multi-mode microplate reader (BioTek, Winooski, VT). Samples were measured in three replicates, and the experiments were repeated three times using at least two different stock solutions. For each time point, arbitrary units of fluorescence were calculated from the mean values normalized against the maximum value in each completed assay. The lag time for each condition was calculated as previously described. All results contained in histograms were presented as mean±SEM. Data were analyzed by the one-way analysis of variance with Dunnett's multiple comparisons between controls and compounds. Differences were considered statistically significant at p<0.05.

[2] = biological target: T2, α-syn (Homo sapiens, UniProt P37840); assay: Photo-induced cross-linking of unmodified proteins (PICUP), α-syn oligomerization; type: biochemical; details: compound 50 μM, molar ratio 1:5 (protein:compound)
T2 construct: purchased rPeptide
Method: (§2) Photo-induced Cross-linking of Unmodified Proteins (PICUP) Assay. To induce oligomerization by cross-linking, α-syn (from Rpeptide, LLC) and tau isoform 2N4R were diluted in 10 mM phosphate buffer (pH 7.4) to reach a final concentration of 10 μM. Different compounds were added to the protein solution at a final concentration of 50 μM, resulting in a molar ratio of 1:5. To confirm the gradual effect of the compounds on the inhibition of α-syn oligomerization, the compounds were tested at final concentrations of 3.125, 6.25, 12.5, 25, and 50 μM. The controls consisted of samples without light exposition, without Ru(bpy) or ammonium persulfate, and without compound (i.e., 0.125% DMSO). The cross-linking reaction was initiated by the addition of 2 μL of Ru(bpy) (300 μM final concentration) and 2 μL ammonium persulfate (6 mM final concentration). Samples were irradiated immediately. Light exposure was of a one-second duration for α-syn and a three-second duration for tau isoform 2N4R, with a 53 W (120 V) incandescent lamp installed in a homemade dark-box. Each tube contained a final volume of 20 μL. After irradiation, 8.3 μL of Laemmli loading buffer containing 15% β-mercaptoethanol were immediately added to the solution, followed by incubation at 95° C. for 10 minutes. The cross-linked samples were separated on a 16% SDS-PAGE gel and visualized by Coomassie blue staining.

[3] = biological target: T3, tau isoform 2N4R (Homo sapiens, UniProt P10636); assay: PICUP, tau isoform 2N4R oligomerization; type: biochemical; details: compound 50 μM
T3 construct: made in house; host or cells: E. coli BL21(DE3)
T3 sequence (P10636 1-441 isoform P10636-8): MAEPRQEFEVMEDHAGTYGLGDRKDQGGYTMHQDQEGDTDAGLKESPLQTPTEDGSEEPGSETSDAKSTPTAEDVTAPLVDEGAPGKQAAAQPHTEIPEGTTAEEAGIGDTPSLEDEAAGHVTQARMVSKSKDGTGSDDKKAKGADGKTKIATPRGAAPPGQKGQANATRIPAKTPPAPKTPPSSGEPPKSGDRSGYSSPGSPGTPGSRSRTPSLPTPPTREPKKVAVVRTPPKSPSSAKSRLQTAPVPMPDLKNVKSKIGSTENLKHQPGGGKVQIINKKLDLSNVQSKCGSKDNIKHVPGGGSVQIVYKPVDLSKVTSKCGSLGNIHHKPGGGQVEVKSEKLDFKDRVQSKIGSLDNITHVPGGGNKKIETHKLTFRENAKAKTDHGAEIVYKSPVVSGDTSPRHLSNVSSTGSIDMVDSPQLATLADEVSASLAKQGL
Method: (§3) The bacterial expression plasmid consisting of the vector pRK172 carrying a cDNA encoding the human Tau 2N4R isoform was obtained from Dr. David Eliezer (Weill Cornell Medicine, New York, NJ). For protein expression, E. coli BL21(DE3) cells were transformed with the plasmid and grown in LB media supplemented with ampicillin (100 μg/mL). Protein over-expression was induced by the addition of 1 mM IPTG for 4 hours at 37° C., and cells were pelleted by centrifugation at 6,000 g for 15 minutes at 4° C. The cells were resuspended in lysis buffer (20 mM MES, 400 mM NaCl, 0.2 mM MgCl2, 1 mM EGTA, protease inhibitor cocktail (P8340, Sigma Aldrich), 0.25 mg/mL lysozyme, and 1 μg/mL DNase 1, pH 6.8) and lysed by a French press cell disruptor at 4° C., after which the lysate was boiled for 20 minutes. Denatured proteins were pelleted by centrifugation at 30,000 g for 30 minutes at 4° C., and the supernatant was dialyzed overnight against cation exchange buffer (20 mM MES, 50 mM NaCl, 1 mM MgCl2, 1 mM EGTA, 2 mM DTT, 0.1 mM PMSF, pH 6.8). The dialysate was loaded onto a HiPrep SP HP column, and proteins were eluted with a linear gradient ranging from 50 mM to 1 M NaCl. Fractions containing tau isoform 2N4R were pooled, and the resulting protein solution was dialyzed against PBS (pH 7.4) and stored at −80° C.
as §2

[4] = biological target: T4, Aβ1-42 (Homo sapiens, UniProt P05067); assay: ThT fluorescence assay of Aβ1-42 fibril formation; type: biochemical; details: screen on prone-to-aggregate proteins (FIG. 2A, FIG. 4A); Aβ 7 μM
T4 construct: α-syn, Aβ1-40, Aβ1-42 were procured from rPeptide; purchased rPeptide
T4 sequence (P05067 672-713 limits assumed): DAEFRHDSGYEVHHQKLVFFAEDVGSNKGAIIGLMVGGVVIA
Method: as §1

[5] = biological target: T5, TTR101-125 (Homo sapiens, UniProt P02766); assay: ThT fluorescence assay of TTR101-125 fibril formation; type: biochemical
T5 construct: TTR fragments 1-25, 26-50, 51-75, 76-100, 81-105, 101-125, and 101-125 were obtained from GenScript; purchased GenScript; host or cells: synthetic peptide
Method: as §1

[6] = biological target: T2, α-syn; assay: Transmission electron microscopy (TEM) of α-syn fibrils; type: biochemical; details: compound 100 μM
Method: (§4) Transmission electron microscopy (TEM). After performing analysis with ThT fluorescence assay, TEM was utilized to detect fibril formation. A volume of 10 μL was applied to a 400-mesh Formvar-carbon-coated copper grid (Electron Microscopy Sciences, Hatfield, PA). The grids were incubated for 1 minute and washed three times with distilled water. They were carefully air-dried and incubated for 1 minute in a fresh solution of 1% uranyl acetate. Samples were air-dried and observed using a transmission microscope. Visualization of the grids was performed with TEM (JEOL 1400 Flash, Japan). Acquisition of pictures was performed with settings of accelerating voltage of 100 kV and magnification of 25 k and/or 40 k.

[7] = biological target: T6, TTR81-127 (Homo sapiens, UniProt P02766); assay: TEM of TTR81-127 fibrils; type: biochemical; details: compound 100 μM, TTR81-127 10 μM, sodium acetate buffer pH 4
T6 construct: TTR fragment 81-127 was obtained from AnaSpec; purchased AnaSpec; host or cells: synthetic peptide

[8] = biological target: T7, IAPP (Homo sapiens, UniProt P10997); assay: TEM of IAPP fibrils; type: biochemical; details: compound 100 μM, IAPP 10 μM, PBS
T7 construct: Human islet amyloid polypeptide (IAPP) was procured from AnaSpec; purchased AnaSpec; host or cells: synthetic peptide
T7 sequence (P10997 34-70 limits assumed): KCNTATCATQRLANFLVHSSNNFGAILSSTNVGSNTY
Method: as §4

[9] = test system: M17D neuroblastoma cells that express inclusion-prone αS-3K::YFP; assay: α-Syn inclusion-forming neuroblastoma cell experiment; type: cell-based; details: 40 μM; t=96 hours
Method: α-Syn (or αS) inclusion-forming neuroblastoma cell experiment. Dox-inducible neuroblastoma cells M17D-TR/αS-3K::YFP have been used previously. 96-well plates were used with a cellular density of 30,000 cells per well. Compounds were added […], and αS-3K::YFP transgene expression was induced […]. Induction was done by adding 1 μg per mL (final concentration) dox to culture media. Cells were incubated in the Incucyte Zoom 2000 platform (Essen Biosciences), and images (green, bright field) were taken continuously. Endpoint analysis of inclusion formation or growth was performed 48 hours after induction (96 hours after plating). The Incucyte processing definition ‘Inclusions’ was created as follows: Parameters, Fixed Threshold, Threshold (GCU) 50; Edge Split On, Edge Sensitivity 100; Cleanup, Hole Fill (μm^2): 10, Adjust Size (pixels): 0; Filters, Area (μm^2): max 50, Mean Intensity: min 60, Integrated Intensity: min 2000. Cell confluence was measured by the processing definition ‘Cells’: Parameters, Segmentation Adjustment 0.7; Cleanup, all parameters set to 0; Filters, Area (μm^2): min 345.00. As described previously for the evaluation of protein expression by SDS-PAGE and Western Blotting in the LiCor system, αS-specific monoclonal antibody 4B12 (Thermofisher, Waltham, MA; 1:1000) and a polyclonal antibody to GAPDH (Sigma-Aldrich, St. Louis, MO, G9545; 1:5000) were used.

[10] = biological target: T8, α-synuclein (α-syn) (Homo sapiens, UniProt P37840); assay: Thioflavin-T (ThT) fluorescence assay of α-syn fibril formation; type: biochemical; details: compounds at 100 μM, α-syn 6.25 μM, control 0.25% DMSO; for remaining activity at 100 µM: read-out: ThT a-Syn (%), maximum thioflavin T (ThT) intensity in percentage
T8 construct: purchased rPeptide
Method: as §1
(§5) Compounds with the highest anti-fibrillary activity were tested at 3.125, 6.25, 12.5, 25, 50, and 100 μM to obtain dose-response curves with prepared α-syn and 2N4R tau at 6.25 μM and 6 μM, respectively. Compounds were tested with α-syn using a previously published procedure. Concerning the tau (isoform 2N4R) kinetics of fibril formation, measurements of ThT fluorescence were performed with a solution of the protein diluted to a final concentration of 6 μM in PBS (pH 7.4) supplemented with 1.5 μM heparin, 20 μM ThT, 2.5 mM DTT, and 100 μM compound. Aliquots of the diluted protein solution (100 μL each) were pipetted into the wells of a 96-well plate, and a Teflon ball was added to each well. The plate was incubated at 37° C. with constant shaking at 1,000 rpm in a Tecan Spark plate reader. ThT fluorescence was measured every 15 minutes with excitation and emission wavelengths of 440 nm and 480 nm, and the data were plotted using GraphPad Prism.

[11] = biological target: T3, tau isoform 2N4R; assay: ThT kinetics of tau isoform 2N4R fibril formation; type: biochemical; details: tau 6 μM, compound 100 μM
Method: as §3, §5

[12] = compound 100 μM, molar ratio 1:10

For `Nc1ccc(-c2nc3ccccc3s2)cc1` [BTA, 4-(2-benzothiazolyl)aniline, reference compound], the “TTR81-127 fibril formation (ThT)” value [1] was “reduced fibril formation”, the “α-syn oligomer formation (PICUP)” value [2] was “not successful in preventing oligomerization” and the “tau isoform 2N4R oligomer formation (PICUP)” value [3] was “not successful in preventing oligomerization”. For the same compound, the “thioflavin T fluorescence intensity, Aβ1-42” value [4] was 22.59±0.71%, the “TTR101-125 fibril formation (ThT)” value ([5]; compound 25 μM, molar ratio 1:2.5) was “continued to reduce TTR101-125 fibrils” and the “TTR101-125 fibril formation (ThT)” value [5, 12] was “reduced fibril formation”. The “α-syn fibrils by TEM” value [6] was “no such branching was observed”, the “TTR81-127 fibrils by TEM” value [7] was “reduced fibril formation” and the “IAPP fibrils by TEM” value [8] was “no such branching was observed”. For the same compound, the cell confluence [9] was “reduction in confluence” and the “number of αS-3K::YFP inclusions” value [9] was “did not affect the number of inclusions”.

In the case of `CC(=O)c1ccc(NC(=S)Nc2ccc(-c3nc4ccccc4s3)cc2)cc1` [Compound 2, 1-(4-acetylphenyl)-3-[4-(1,3-benzothiazol-2-yl)phenyl]thiourea], the “TTR81-127 fibril formation (ThT)” value [1] is reported as “to a lesser extent, compound 2 reduced fibril formation”, the “TTR101-125 fibril formation (ThT)” value ([5]; compound 50 μM, molar ratio 1:5) is reported as “weak in inhibiting TTR101-125 fibril formation” and the “TTR101-125 fibril formation (ThT)” value [5, 12] is reported as “to a lesser extent, compound 2 reduced fibril formation”.

`O=[N+]([O-])c1ccc2snc(Nc3nc(Cl)nc(Cl)n3)c2c1` [Compound 6, N-(4,6-dichloro-1,3,5-triazin-2-yl)-5-nitro-1,2-benzothiazol-3-amine] was tested, and the remaining activity at 100 µM [10] was > 100% and the remaining activity at 100 µM [1] was 82.6 ± 6%.

With `O=[N+]([O-])c1ccc2snc(Nc3ncnc(Cl)n3)c2c1` [Compound 7, N-(4-chloro-1,3,5-triazin-2-yl)-5-nitro-1,2-benzothiazol-3-amine] the remaining activity at 100 µM [10] was > 100% and the remaining activity at 100 µM [1] was > 100%.

With `O=C(Cc1ccccc1)Nc1nsc2ccc([N+](=O)[O-])cc12` [Compound 8, N-(5-nitro-1,2-benzothiazol-3-yl)-2-phenylacetamide] the remaining activity at 100 µM [10] was > 100% and the remaining activity at 100 µM [1] was 95.2 ± 1.2%.

In the case of `O=C(Cc1cccs1)Nc1nsc2ccc([N+](=O)[O-])cc12` [Compound 9], the remaining activity at 100 µM [10] is reported as > 100% and the remaining activity at 100 µM [1] is reported as 69 ± 0.1%.

In the case of `CC(=O)Nc1nsc2ccc([N+](=O)[O-])cc12` [Compound 10, N-(5-nitro-1,2-benzothiazol-3-yl)acetamide], the “ThT a-Syn (%), maximum thioflavin T (ThT) intensity in percentage” value [10] is reported as 55.6 ± 3.2%, the remaining activity at 100 µM [10] is reported as 55.6 ± 3.2% and the remaining activity at 100 µM [1] is reported as 90.2 ± 2.7%. For the same compound, the “production of tau isoform 2N4R fibrils (ThT kinetic aggregation curves)” value [11] was “reduced the production of tau isoform 2N4R fibrils”.

`O=C(CCl)Nc1nsc2ccc([N+](=O)[O-])cc12` [Compound 11, 2-chloro-N-(5-nitro-1,2-benzothiazol-3-yl)acetamide] was tested, and the “ThT a-Syn (%), maximum thioflavin T (ThT) intensity in percentage” value [10] was 45.3 ± 12.9%, the remaining activity at 100 µM [10] was 45.3 ± 12.9% and the remaining activity at 100 µM [1] was 59.7 ± 2.6%.

`CS(=O)(=O)N(c1nsc2ccc([N+](=O)[O-])cc12)S(C)(=O)=O` [Compound 12, N-methanesulfonyl-N-(5-nitro-1,2-benzothiazol-3-yl)methanesulfonamide] was tested, and the remaining activity at 100 µM [10] was > 100% and the remaining activity at 100 µM [1] was 63 ± 17.4%.
